Results published in patent US10239957B2, “Peptide containing conjugates for dual molecular delivery of oligonucleotides” (Merck Sharp & Dohme Corp., priority 2013, dated 2019).
In the oligonucleotide strings, read from the 5' end, every base follows the letter of its sugar. An asterisk marks phosphorothioate; unmarked linkages are phosphodiester. Other units and linkages are bracketed, terminal groups are in braces. A string of capitals states the bases alone. Where no end group is shown, it is not given here. [ ]: non-standard residue; d: D form. {NH2C6-invAb} = cap: inverted abasic residue carrying an aminohexyl phosphate (attachment handle); [invAb] = inverted abasic unit; TGN = not defined here; m = 2'-O-methyl; f = 2'-fluoro

What was measured:
CTNNB1 [1] = test: In vitro DMD assay: mRNA silencing enhancement by peptide conjugates after siRNA-IV treatment; format: cell-based; settings: primary mouse hepatocytes, siRNA-IV 125 nM baseline
Outline: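 Primary mouse hepatocytes were pretreated 1 h with siRNA-IV at 125 nM, then exposed ~16 h to peptide conjugates across a dose range, washed and held 24 h more. Target mRNA by RT-qPCR, normalized to PPIB (dddCt), expressed as enhancement over siRNA-IV alone relative to untreated cells.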

CTNNB1 [2] = test: In vivo evaluation in mice: liver mRNA knockdown measurement; settings: for In vivo mRNA knockdown: mice
Procedure: Female CD-1 mice (Charles River) were injected in accordance with either a sequential dosing paradigm or a co-dosing paradigm. In the sequential dosing paradigm, the targeted siRNA (SCE) is dosed at t=0 and the targeted peptide is separately dosed up to 2 hr before the SCE (−2 hr) or up to 24 hr after the SCE (+24 hr). In the co-dosing paradigm, the SCE and peptides are co-formulated and dosed together in the same formulation as a single injection at t=0. The mice were dosed either by intravenous (i.v.) or subcutaneous (s.c.) injection of SCE and peptide. For the i.v. doses, the compounds were injected into the tail vein of the mice. For the s.c. doses, the compounds were injected in the subcutaneous space on the back of the mouse between the shoulder blades. At the indicated harvest times (measured from t=0 when the siRNA was dosed, regardless of when the peptide was dosed), the animals were sacrificed and 3 mm liver punches were collected, preserved in RNAlater (Ambion), and stored at 4° C. Separate 5 mm liver punches were collected, placed in 96-well plates, frozen on dry ice, and stored at −80° C. until use.
The 3 mm liver punches were removed from RNAlater and homogenized in Trizol (Invitrogen) using a bead mill tissue lyser (Qiagen); disruption was performed for two 5-minute cycles at 30 Hz. RNA extraction was performed using 1-bromo-2-chloropropane (Acros Organics) and total RNA was isolated from the aqueous phase using the MagMax RNA isolation method (Ambion). […] TaqMan qPCR analysis was performed with an ABI 7900 Real-Time PCR System using TaqMan Fast Advanced Master Mix (Applied Biosystems). All TaqMan probes and primers for CTNNB1 and PPIB (housekeeping gene) were purchased from Applied Biosystems as pre-validated gene expression assays. Results are calculated by the comparative Ct method, where the difference between the CTNNB1 Ct value and the PPIB Ct value (ΔCt) is calculated and then further normalized relative to the PBS control by taking a second difference (ΔΔCt), as described previously (1).

[3] = siRNA metabolic stability (order stated for FIG. 6); settings: order siRNA-I>siRNA-V>siRNA-VI
[4] = TGN-L-siRNA-III 0.25 mg/kg IV, peptide 10 mg/kg IV 15 min after siRNA

TGN-S-S-SEQ ID NO: 1632 (D) ([dC]G[dL][dF]G[dE][dI][dH][dH][dL][dI][dH][dH]G[dL][dH][dN][dL][dI][dD][dW][dW][dN]G; not fully specified (residue 1); also: TGN attached via disulfide; listed as Homo sapiens)
In vitro dddCt (vs. baseline SCE dose) (CTNNB1 [1]; Targeted peptide dose 125 nM): −0.29
In vitro dddCt (vs. baseline SCE dose) (CTNNB1 [1]; Targeted peptide dose 625 nM): −0.44
In vitro dddCt (vs. baseline SCE dose) (CTNNB1 [1]; Targeted peptide dose 3125 nM): −0.19
In vitro dddCt (vs. baseline SCE dose) (CTNNB1 [1]; Targeted peptide dose 15625 nM): −0.47
In vivo mRNA knockdown (CTNNB1 [2]; [4]): 36%

siRNA-I: CTNNB1 siRNA; passenger SEQ ID NO 1803, guide SEQ ID NO 1804 (sense CUGUUGGAUUGAUUCGAAAUU; guide UUUCGAAUCAAUCCAACAGUU; (1)..(1) aminohexyl phosphate inverted abasic cap; (1)..(2) 2′-O-methyl; (3)..(3) 2′-deoxy-2′-fluoro; (4)..(5) 2′-O-methyl; (6)..(8) 2′-deoxy-2′-fluoro; (9)..(10) 2′-O-methyl; (11)..(12) 2′-deoxy-2′-fluoro; (13)..(15) 2′-O-methyl; (16)..(19) 2′-deoxy-2′-fluoro; (20)..(21) 2′-O-methyl; (20)..(21) phosphorothioate internucleotide linkage; (21)..(21) inverted abasic cap; (1)..(1) 2′-O-methyl; (1)..(2) phosphorothioate internucleotide linkage; (2)..(2) 2′-deoxy-2′-fluoro; (2)..(3) phosphorothioate internucleotide linkage; (3)..(3) 2′-O-methyl; (3)..(4) phosphorothioate internucleotide linkage)
siRNA (metabolic) stability [3]: highly stable
Effect of timing of peptide dose on activity, FIG. 6 (CTNNB1 [2]; peptide within 2 hr before up to 24 hr after siRNA dose): does not significantly change the activity

siRNA-V: CTNNB1 siRNA; passenger SEQ ID NO 1803, guide SEQ ID NO 1808 (sense {NH2C6-invAb}-mCmUfGmUmUfGfGfAmUmUfGfAmUmUmCfGfAfAfAmU*mU[invAb]; guide mUfUmUfCmGfAmAfUmCfAmAfUmCfCmAfAmCfAmGmU*mU)
siRNA (metabolic) stability [3]: moderately stable
Activity, FIG. 6 (CTNNB1 [2]; longer separation times (4-24 hr post-siRNA dose)): background levels
Activity (KD), FIG. 6 (CTNNB1 [2]; peptide dose times within 2 hr (before or after) the siRNA): ~25%

TGN-S-S-SEQ ID NO: 1651 (D) ([dC]G[dL][dF][dE][dE][dI][dA][dE][dL][dI][dE][dE]G[dL][dE][dN][dL][dI][dD][dW]G[dN]G; not fully specified (residue 1); also: TGN attached via disulfide; listed as Homo sapiens)
In vitro dddCt (vs. baseline SCE dose) (CTNNB1 [1]; Targeted peptide dose 125 nM): −0.84
In vitro dddCt (vs. baseline SCE dose) (CTNNB1 [1]; Targeted peptide dose 625 nM): −1.11
In vitro dddCt (vs. baseline SCE dose) (CTNNB1 [1]; Targeted peptide dose 3125 nM): −1.55
In vitro dddCt (vs. baseline SCE dose) (CTNNB1 [1]; Targeted peptide dose 15625 nM): −1.48
In vivo mRNA knockdown (CTNNB1 [2]; [4]): 49%

siRNA-VI: CTNNB1 siRNA; passenger SEQ ID NO 1803, guide SEQ ID NO 1809 (sense {NH2C6-invAb}-mCmUfGmUmUfGfGfAmUmUfGfAmUmUmCfGfAfAfAmU*mU[invAb]; guide fUfUfUmCfGfAfAmUmCfAfAmUmCfCfAfAmCfAfGmU*mU)
siRNA (metabolic) stability [3]: more unstable
Activity, FIG. 6 (CTNNB1 [2]; DMD with peptide, more unstable siRNA): background levels

TGN-S-S-SEQ ID NO: 1740 (L): TGN-S-S-peptide; peptide GLFEAIEGFIENGWEGLAELAEALEALAAGGSC (GLFEAIEGFIENGWEGLAELAEALEALAAGGSC(TGN); reading uncertain; also: TGN linked to Cys via disulfide, TGN not defined; listed as Homo sapiens)
In vitro dddCt (vs. baseline SCE dose) (CTNNB1 [1]; Targeted peptide dose 8 nM): 0
In vitro dddCt (vs. baseline SCE dose) (CTNNB1 [1]; Targeted peptide dose 40 nM): 0.13
In vitro dddCt (vs. baseline SCE dose) (CTNNB1 [1]; Targeted peptide dose 200 nM): −0.07
In vitro dddCt (vs. baseline SCE dose) (CTNNB1 [1]; Targeted peptide dose 1000 nM): −0.06
In vitro dddCt (vs. baseline SCE dose) (CTNNB1 [1]; Targeted peptide dose 5000 nM): −0.06
In vivo mRNA knockdown (CTNNB1 [2]; TGN-L-siRNA-II 0.25 mg/kg IV, peptide 3 mg/kg IV 15 min after siRNA): 20%

TGN-S-S-SEQ ID NO: 1633 (D) ([dC]G[dL][dF]G[dE][dI][dH][dH][dL][dI][dH][dH]G[dL][dE][dN][dL][dI][dD][dW][dW][dN]G; not fully specified (residue 1); also: TGN attached via disulfide; listed as Homo sapiens)
In vitro dddCt (vs. baseline SCE dose) (CTNNB1 [1]; Targeted peptide dose 25 nM): −0.33
In vitro dddCt (vs. baseline SCE dose) (CTNNB1 [1]; Targeted peptide dose 625 nM): −0.2
In vitro dddCt (vs. baseline SCE dose) (CTNNB1 [1]; Targeted peptide dose 3125 nM): −0.2
In vivo mRNA knockdown (CTNNB1 [2]; [4]): 55%

TGN-S-S-SEQ ID NO: 1713 (L) (C(TGN)GLRHGELEELSHEEGLENLIDWWNG; reading uncertain; also: TGN disulfide conjugate at Cys1; listed as Homo sapiens)
In vitro dddCt (vs. baseline SCE dose) (CTNNB1 [1]; Targeted peptide dose 8 nM): 0.21
In vitro dddCt (vs. baseline SCE dose) (CTNNB1 [1]; Targeted peptide dose 40 nM): 0.21
In vitro dddCt (vs. baseline SCE dose) (CTNNB1 [1]; Targeted peptide dose 200 nM): 0.15
In vitro dddCt (vs. baseline SCE dose) (CTNNB1 [1]; Targeted peptide dose 1000 nM): −0.04
In vitro dddCt (vs. baseline SCE dose) (CTNNB1 [1]; Targeted peptide dose 5000 nM): 0
In vivo mRNA knockdown (CTNNB1 [2]; TGN-L-siRNA-III 0.25 mg/kg IV, peptide 2 mg/kg IV 15 min after siRNA): 0%
In vivo mRNA knockdown (CTNNB1 [2]; [4]): 2%

TGN-S-S-SEQ ID NO: 1653 (D) ([dC]G[dL][dF]G[dE][dI][dA][dE][dL][dI][dW][dE]G[dL][dE][dN][dL][dI][dD][dW]G[dN]G; not fully specified (residue 1); also: TGN attached via disulfide; listed as Homo sapiens)
In vitro dddCt (vs. baseline SCE dose) (CTNNB1 [1]; Targeted peptide dose 25 nM): −0.76
In vitro dddCt (vs. baseline SCE dose) (CTNNB1 [1]; Targeted peptide dose 15625 nM): −2.13
In vivo mRNA knockdown (CTNNB1 [2]; [4]): 63%
In vivo mRNA knockdown (CTNNB1 [2]; TGN-L-siRNA-III 0.25 mg/kg IV, peptide 50 mg/kg IV 15 min after siRNA): 69%

TGN-S-S-SEQ ID NO: 1652 (D) ([dC][dE][dL][dF][dE][dE][dL][dA][dE][dL][dL][dW][dE]G[dL][dE][dN][dL][dI][dD][dW]G[dN][dS]; not fully specified (residue 1); also: TGN attached via disulfide; listed as Homo sapiens)
In vitro dddCt (vs. baseline SCE dose) (CTNNB1 [1]; Targeted peptide dose 125 nM): −1.27
In vitro dddCt (vs. baseline SCE dose) (CTNNB1 [1]; Targeted peptide dose 625 nM): −1.5
In vitro dddCt (vs. baseline SCE dose) (CTNNB1 [1]; Targeted peptide dose 3125 nM): −1.6
In vitro dddCt (vs. baseline SCE dose) (CTNNB1 [1]; Targeted peptide dose 15625 nM): −2.03
In vivo mRNA knockdown (CTNNB1 [2]; [4]): 37%

TGN-S-S-SEQ ID NO: 1712 (L): TGN-S-S-peptide; peptide CFLGALWKALSELLKNLIDWWNG (C(TGN)FLGALWKALSELLKNLIDWWNG; reading uncertain; also: TGN disulfide conjugate at Cys1; listed as Homo sapiens)
In vitro dddCt (vs. baseline SCE dose) (CTNNB1 [1]; Targeted peptide dose 8 nM): 0.03
In vitro dddCt (vs. baseline SCE dose) (CTNNB1 [1]; Targeted peptide dose 40 nM): 0.07
In vitro dddCt (vs. baseline SCE dose) (CTNNB1 [1]; Targeted peptide dose 200 nM): −0.08
In vitro dddCt (vs. baseline SCE dose) (CTNNB1 [1]; Targeted peptide dose 1000 nM): 0
In vitro dddCt (vs. baseline SCE dose) (CTNNB1 [1]; Targeted peptide dose 5000 nM): −0.2
In vivo mRNA knockdown (CTNNB1 [2]; TGN-L-siRNA-III 0.5 mg/kg IV, peptide 5 mg/kg IV 15 min after siRNA): 34%
